Results published in ChEMBL document CHEMBL5244216, “Pyrrole: An insight into recent pharmacological advances with structure activity relationship” (Eur J Med Chem, 2018).
≈ marks a conversion by molar mass, not a printed value.

What was measured:
[1] = tested on: Human immunodeficiency virus; experiment: Antiviral activity against HIV-CBL 20 infected in MT-4 cells assessed as viral replication measured after 4 days by ELISA; format: functional, organism-based; settings: Human immunodeficiency virus 1, CBL 20, MT4, 96 h
[2] = Cytotoxicity activity against human MCF7 cells assessed as reduction in cell viability measured after 72 hrs by MTT assay; format: toxicity, cell-based
[3] = Cytotoxicity activity against human MOLT-4 cells assessed as reduction in cell viability measured after 72 hrs by MTT assay; format: toxicity, cell-based
[4] = Cytotoxicity activity against human HL-60 cells assessed as reduction in cell viability measured after 72 hrs by MTT assay; format: toxicity, cell-based
[5] = Inhibition of maize HD2; set-up: species or system Zea mays
[6] = Inhibition of maize HD1-B; set-up: species or system Zea mays
[7] = Inhibition of maize HD1-A; set-up: species or system Zea mays
[8] = tested on: Pseudomonas aeruginosa; experiment: Antibacterial activity against Pseudomonas aeruginosa assessed as reduction in bacterial growth by broth microdilution method; format: functional, organism-based
[9] = tested on: Escherichia coli; experiment: Antibacterial activity against Escherichia coli assessed as reduction in bacterial growth by broth microdilution method; format: functional, organism-based
[10] = tested on: Klebsiella pneumoniae; experiment: Antibacterial activity against Klebsiella pneumoniae assessed as reduction in bacterial growth by broth microdilution method; format: functional, organism-based
[11] = tested on: Staphylococcus auricularis; experiment: Antibacterial activity against Staphylococcus auricularis assessed as reduction in bacterial growth by broth microdilution method; format: functional, organism-based
[12] = tested on: Bacillus subtilis; experiment: Antibacterial activity against Bacillus subtilis assessed as reduction in bacterial growth by broth microdilution method; format: functional, organism-based
[13] = tested on: Rattus norvegicus; experiment: Anti-inflammatory activity against carrageenan-induced acute paw edema in Wistar albino rat at 100 mg/kg assessed as inhibition of paw edema volume incubated for 3 hrs by Plethysmometric analysis relative to control; format: functional; set-up: scale not given: the % may be the effect or the level left
[14] = tested on: Rattus norvegicus; experiment: Anti-inflammatory activity against carrageenan-induced acute paw edema in Wistar albino rat at 10 mg/kg assessed as inhibition of paw edema incubated for 3 hrs by Plethysmometric analysis relative to control; format: functional; set-up: scale not given: the % may be the effect or the level left
[15] = tested on: Rattus norvegicus; experiment: Anti-inflammatory activity against carrageenan-induced acute paw edema in Wistar albino rat at 10 mg/kg assessed as inhibition of paw edema incubated for 5 hrs by Plethysmometric analysis relative to control; format: functional; set-up: scale not given: the % may be the effect or the level left
[16] = Cytotoxicity activity against human Eca-109 cells assessed as reduction in cell viability measured after 48 hrs by MTT assay; format: toxicity, cell-based
[17] = Cytotoxicity activity against human PC-3 cells assessed as reduction in cell viability measured after 48 hrs by MTT assay; format: toxicity, cell-based
[18] = Cytotoxicity activity against human SMMC-7721 cells assessed as reduction in cell viability measured after 48 hrs by MTT assay; format: toxicity, cell-based
[19] = tested on: Mycobacterium tuberculosis; experiment: Antitubercular activity against Mycobacterium tuberculosis H37Rv assessed as reduction in microbial growth by broth dilution method; format: functional
[20] = tested on: Mycobacterium tuberculosis; experiment: Antitubercular activity against Mycobacterium tuberculosis H37Rv assessed as reduction in bacterial growth by microplate alamar blue assay; format: functional
[21] = tested on: Bacillus subtilis; experiment: Antibacterial activity against Bacillus subtilis MTCC 121 assessed as zone of inhibition at 800 ug/mL by disk diffusion method; format: functional; settings: read-out: IZ
[22] = tested on: Staphylococcus aureus; experiment: Antibacterial activity against Staphylococcus aureus 22 assessed as zone of inhibition at 800 ug/mL by disk diffusion method; format: functional; settings: read-out: IZ
[23] = tested on: Escherichia coli; experiment: Antibacterial activity against Escherichia coli K12 assessed as zone of inhibition at 800 ug/mL by disk diffusion method; format: functional; settings: read-out: IZ
[24] = tested on: Klebsiella pneumoniae; experiment: Antibacterial activity against Klebsiella pneumoniae assessed as zone of inhibition at 800 ug/mL by disk diffusion method; format: functional; settings: read-out: IZ
[25] = tested on: Human immunodeficiency virus 1; experiment: Antiviral activity against HIV-1; format: functional, organism-based
[26] = target: Cannabinoid receptor 1 (Rattus norvegicus, UniProt P20272); experiment: Binding affinity to rat CB1 receptor
Chain of Cannabinoid receptor 1 (P20272 whole entry): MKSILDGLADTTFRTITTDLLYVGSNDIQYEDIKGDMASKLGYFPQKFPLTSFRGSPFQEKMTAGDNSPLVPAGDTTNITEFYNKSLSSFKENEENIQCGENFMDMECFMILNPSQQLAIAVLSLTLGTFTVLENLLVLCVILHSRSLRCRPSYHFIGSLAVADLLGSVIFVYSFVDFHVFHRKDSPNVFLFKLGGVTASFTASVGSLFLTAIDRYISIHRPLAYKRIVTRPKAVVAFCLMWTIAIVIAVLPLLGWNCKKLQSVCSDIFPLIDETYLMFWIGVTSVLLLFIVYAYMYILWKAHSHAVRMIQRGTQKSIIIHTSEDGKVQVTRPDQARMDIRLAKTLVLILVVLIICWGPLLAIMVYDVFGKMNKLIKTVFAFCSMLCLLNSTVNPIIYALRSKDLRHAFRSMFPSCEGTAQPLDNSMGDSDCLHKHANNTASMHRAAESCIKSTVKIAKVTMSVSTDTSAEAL

[27] = target: Cannabinoid receptor 2 (Homo sapiens, UniProt P34972); experiment: Binding affinity to human recombinant CB2 receptor
Chain of Cannabinoid receptor 2 (P34972 whole entry): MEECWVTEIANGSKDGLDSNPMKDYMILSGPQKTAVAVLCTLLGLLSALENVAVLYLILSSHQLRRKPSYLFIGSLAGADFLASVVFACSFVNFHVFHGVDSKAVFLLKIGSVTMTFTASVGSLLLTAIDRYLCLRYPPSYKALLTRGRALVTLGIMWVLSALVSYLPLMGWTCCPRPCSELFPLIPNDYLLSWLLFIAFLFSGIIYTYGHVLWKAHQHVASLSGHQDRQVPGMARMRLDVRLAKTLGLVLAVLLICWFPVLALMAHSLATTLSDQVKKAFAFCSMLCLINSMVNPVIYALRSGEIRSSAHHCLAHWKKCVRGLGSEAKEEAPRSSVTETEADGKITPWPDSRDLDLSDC

[28] = tested on: Rattus norvegicus; experiment: Antihypertensive activity in Wistar rat assessed as decrease in systolic blood pressure at 20 mg/kg, po measured after 0.5 to 2 hrs by tail cuff method; format: functional; settings: time 0.5-2 hrs
[29] = Toxicity in Nilaparvata lugens assessed as mortality at 0.8 mg/L relative to control; settings: at 0.8 µg/mL
[30] = tested on: Mycobacterium tuberculosis; experiment: Antitubercular activity against Mycobacterium tuberculosis 103471 assessed as reduction in bacterial growth; format: functional
[31] = target: Tyrosine-protein kinase Lck (Homo sapiens, UniProt P06239); experiment: Inhibition of human recombinant Lck
Chain of Tyrosine-protein kinase Lck (P06239 whole entry): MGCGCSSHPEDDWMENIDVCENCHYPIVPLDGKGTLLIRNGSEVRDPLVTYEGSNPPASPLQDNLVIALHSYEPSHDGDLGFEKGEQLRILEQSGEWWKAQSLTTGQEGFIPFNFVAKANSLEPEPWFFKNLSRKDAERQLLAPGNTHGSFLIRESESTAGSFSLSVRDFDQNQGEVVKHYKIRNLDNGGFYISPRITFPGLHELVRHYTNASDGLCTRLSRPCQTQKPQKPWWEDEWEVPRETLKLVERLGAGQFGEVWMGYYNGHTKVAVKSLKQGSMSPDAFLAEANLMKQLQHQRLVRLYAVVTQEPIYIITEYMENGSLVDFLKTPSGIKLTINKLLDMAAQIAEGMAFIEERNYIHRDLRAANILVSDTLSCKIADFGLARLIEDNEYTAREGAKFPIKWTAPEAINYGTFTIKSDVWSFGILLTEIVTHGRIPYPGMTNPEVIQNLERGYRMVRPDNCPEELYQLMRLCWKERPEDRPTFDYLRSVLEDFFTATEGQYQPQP

[32] = tested on: MDA-MB-231; experiment: Antiproliferative activity against human MDA-MB-231 cells by SRB assay
[33] = tested on: Rattus norvegicus; experiment: Anti-inflammatory activity against carrageenan-induced acute paw edema in Wistar albino rat at 10 mg/kg assessed as inhibition of paw edema volume incubated for 3 hrs by Plethysmometric analysis relative to control; format: functional; set-up: scale not given: the % may be the effect or the level left
[34] = Cytotoxicity activity against human A549 cells assessed as reduction in cell viability measured after 48 hrs by MTT assay; format: toxicity, cell-based

O=[N+]([O-])c1ccccc1S(=O)(=O)c1ccccc1
EC50 [1]: 3.4 µM

CCOC(=O)c1cccn1S(=O)(=O)c1ccccc1[N+](=O)[O-]
EC50 [1]: 15.1 µM

COC(=O)c1c(C2C(=O)N(C)C(=O)N(C)C2=O)c(-c2ccccc2)n(-c2ccc(OC)c(S(=O)(=O)N3CCOCC3)c2)c1C(=O)OC
IC50 at 72 h [2]: 39 µM | IC50 at 72 h [3]: 25.5 µM | IC50 at 72 h [4]: 30.6 µM

CC(C(=O)c1cc(/C=C/C(=O)NO)n(C)c1)c1ccccc1 (configuration not stated)
IC50 [5]: 0.112 µM | IC50 [6]: 0.015 µM | IC50 [7]: 0.028 µM

Cc1c[nH]c(C(=O)N/N=C(/N=N/c2ccccc2)c2ccccc2O)c1C
IC50 [8]: 15.6 µM | IC50 [9]: 15.6 µM | IC50 [10]: 15.6 µM | IC50 [11]: 460 µM | IC50 [12]: 460 µM

O=C(O)Cn1c(C(=O)O)c(C(=O)c2cccs2)c2sc(C(=O)O)cc21
Activity [13]: 36%

O=C(Nc1nnc(-c2ccccc2)s1)c1c[nH]cc1-c1ccc([N+](=O)[O-])cc1
Activity [14]: 76.24% | Activity [15]: 78.62%

CN1C(=O)C(c2ccc[nH]2)=C(c2c[nH]c3ccc(Br)cc23)C1=O
IC50 at 48 h [16]: 6.21 µM | IC50 at 48 h [17]: 2.16 µM | IC50 at 48 h [18]: 29.7 µM

CCOc1cc(C2OC(c3ccc(-n4cccc4)cc3)=NN2C(C)=O)ccc1O (configuration not stated)
MIC [19]: 0.2 µg/mL

O=C(N/N=C/c1ccc(C(c2cccc([N+](=O)[O-])c2)c2ccc(/C=N/NC(=O)c3ccncc3)[nH]2)[nH]1)c1ccncc1
MIC [20]: 7.9 µg/mL (≈ 14.1 µM)

CCCC/C=C/CCC(O)CCCCCCCC(=O)Nn1c(C)ccc1C (configuration not stated)
zone of inhibition at 800 µg/mL [21]: 18 mm | zone of inhibition at 800 µg/mL [22]: 20 mm | zone of inhibition at 800 µg/mL [23]: 22 mm | zone of inhibition at 800 µg/mL [24]: 21 mm

CCCCCCC(O)C/C=C/CCCCCCCCC(=O)Nn1c(C)ccc1C (configuration not stated)
zone of inhibition at 800 µg/mL [21]: 19 mm | zone of inhibition at 800 µg/mL [22]: 18 mm | zone of inhibition at 800 µg/mL [23]: 21 mm | zone of inhibition at 800 µg/mL [24]: 20 mm

Cc1ccc(C)n1-c1ccc(C(=O)n2[nH]c(=O)c3ccccc3c2=O)cc1
MIC [19]: 0.4 µg/mL

CCCCc1c(COC(N)=O)cn(Cc2ccncc2)c1Sc1cc(Cl)cc(Cl)c1
EC50 [25]: 0.007 µM

CCCCCn1c(C)c(Br)c(C(=O)c2cccc3ccccc23)c1C
EC50 [26]: 0.0133 µM | EC50 [27]: 0.0068 µM

CCOC(=O)c1cc(-c2ccc([N+](=O)[O-])cc2)n(-c2ccc(C3=NNC(=O)CC3)cc2)c1C
Activity [28]: 70.3 mmHg

CCOc1c([N+](=O)[O-])c2n(c1C)CCN2Cc1cnc(Cl)s1
mortality [29]: 50%

Cc1c(CN2CCSCC2)cc(-c2ccccc2F)n1-c1ccccc1F
MIC [30]: 1 µg/mL (≈ 2.6 µM)

NC(=O)c1c(-c2ccc(Oc3ccccc3)cc2)[nH]c(C(=O)c2c(F)cccc2F)c1N
IC50 [31]: 0.0011 µM

O=C(O)c1cn(C2CC2)c2cc(N3CCNCC3)c(F)cc2c1=O [CIPROFLOXACIN]
zone of inhibition at 800 µg/mL [21]: 18 mm | zone of inhibition at 800 µg/mL [22]: 20 mm | zone of inhibition at 800 µg/mL [24]: 23 mm

COc1cc2c(c(OC)c1OC)-c1ccc(OC)c(=O)cc1[C@@H](NC(C)=O)CC2 [COLCHICINE]
IC50 [32]: 2 µM

O=C([O-])Cc1ccccc1Nc1c(Cl)cccc1Cl.[Na+] [DICLOFENAC SODIUM]
Activity [33]: 68%

CC[C@@H](CO)NCCN[C@@H](CC)CO [ETHAMBUTOL]
MIC [19]: 0.5 µg/mL

NNc1nncc2ccccc12 [HYDRALAZINE]
Activity [28]: 83.59 mmHg

O=[N+]([O-])NC1=NCCN1Cc1ccc(Cl)nc1 [IMIDACLOPRID]
mortality [29]: 40%

COc1ccc2c(c1)c(CC(=O)O)c(C)n2C(=O)c1ccc(Cl)cc1 [INDOMETHACIN]
Activity [14]: 74.82% | Activity [15]: 80.32%

NNC(=O)c1ccncc1 [ISONIAZID]
MIC [20]: 7.9 µg/mL (≈ 57.6 µM) | MIC [19]: 0.2 µg/mL | MIC [30]: 0.25 µg/mL (≈ 1.82 µM)

CN1C(C(=O)Nc2ccccn2)=C(O)c2ccccc2S1(=O)=O [PIROXICAM]
Activity [33]: 59%

CO[C@H]1/C=C/O[C@@]2(C)Oc3c(C)c(O)c4c(O)c(c(/C=N/N5CCN(C)CC5)c(O)c4c3C2=O)NC(=O)/C(C)=C\C=C\[C@H](C)[C@H](O)[C@@H](C)[C@@H](O)[C@@H](C)[C@H](OC(C)=O)[C@@H]1C [RIFAMPIN]
MIC [19]: 0.4 µg/mL | MIC [30]: 0.3 µg/mL (≈ 0.365 µM)

O=C1NC(=O)C(c2c[nH]c3ccccc23)=C1c1c[nH]c2ccccc12 [RO-316233]
IC50 at 48 h [16]: 15.9 µM | IC50 at 48 h [17]: 10.3 µM | IC50 at 48 h [18]: 13.2 µM | IC50 at 48 h [34]: 4.14 µM

CN[C@@H]1[C@H](O[C@H]2[C@H](O[C@H]3[C@H](O)[C@@H](O)[C@H](N=C(N)N)[C@@H](O)[C@@H]3N=C(N)N)O[C@@H](C)[C@]2(O)C=O)O[C@@H](CO)[C@H](O)[C@H]1O [STREPTOMYCIN]
MIC [30]: 0.5 µg/mL (≈ 0.86 µM)

NC(=O)N1C(=O)/C(=C(\[O-])c2cccs2)c2cc(Cl)ccc21.[Na+] [TENIDAP SODIUM]
Activity [33]: 60%

CN(C)[C@@H]1C(O)=C(C(N)=O)C(=O)[C@@]2(O)C(O)=C3C(=O)c4c(O)cccc4[C@@](C)(O)[C@H]3C[C@@H]12 [TETRACYCLINE]
IC50 [8]: 1.25 µM | IC50 [9]: 10 µM | IC50 [10]: 0.312 µM | IC50 [11]: 10 µM | IC50 [12]: 1.25 µM

CC(/C=C/C(=O)NO)=C\[C@@H](C)C(=O)c1ccc(N(C)C)cc1 [TRICHOSTATIN]
IC50 [5]: 0.007 µM | IC50 [6]: 0.0004 µM | IC50 [7]: 0.0008 µM
